Experimental findings from paper PMC6211316, “Synthesis and biological evaluation of 3-arylcoumarin derivatives as potential anti-diabetic agents” (Journal of Enzyme Inhibition and Medicinal Chemistry, 2018) are described below.

SMILES strings stand for the structures.

Tested on in the first data set: not listed separately
The data set can be described thus: hydroxyl radical scavenging. The settings on record: mean ± SD (n = 3), read-out: OH IC50 Value. As for the experimental part: The ability of the target compounds and vitamin C to scavenge the hydroxyl radical was evaluated with method described by Ismaili et al.[29] with slight modifications. In test tube, 1.0 ml H2O2 solution (0.03%), 1.0 ml FeSO4 solution (2 mmol.L^−1), 1.0 ml salicylic acid solution (10 mmol.L^−1) and 1.0 ml of 3-arylcoumarins and standard water solution with different concentration (0.4–2.0 mg/mL) were mixed. Finally, 1.0 ml H2O2 solution (0.03%) was added to this mixture to start the reaction. Solutions were kept at 37 °C. After 30 min, the absorbance was measured at 510 nm against the reagent blank, where the distilled water was substituted for the H2O2 solution. The percentage of OH scavenging by target compounds and vitamin C was calculated the following equation: OH scavenging effect (%)=[A0−(A1−A2)]/A0×100% where A0 is the absorbance of 1.0 ml distilled water +1.0 ml H2O2 + 1.0 ml FeSO4 + 1.0 ml salicylic acid +1.0 ml H2O2; A1 is the absorbance of 1.0 ml 3-arylcoumarins or standard +1.0 ml H2O2 + 1.0 ml FeSO4 + 1.0 ml salicylic acid +1.0 ml H2O2; A2 is the absorbance of 1.0 ml 3-arylcoumarins or standard +1.0 ml H2O2 + 1.0 ml FeSO4 + 1.0 ml absolute absolute ethanol +1.0 ml H2O2.
Take `Cc1ccccc1-c1cc2cccc(O)c2oc1=O` [Compound 10, 8-Hydroxy-3-(2-methylphenyl)-coumarin]: the IC50 (commonly the concentration that inhibits the measured activity by half) is greater than 1000 µM.
Still for that read-out and setting: for `O=c1oc2c(O)c(O)ccc2cc1-c1ccc(F)cc1` [Compound 32, 7,8-Dihydroxy-3-(4-fluorophenyl)-coumarin] the value was 970 ± 70.9 µM; for `O=c1oc2c(O)c(O)ccc2cc1-c1ccc(O)cc1` [Compound 30, 7,8-Dihydroxy-3-(4-hydroxyphenyl)-coumarin], 697 ± 19.6 µM.
Regarding `COc1ccc(-c2cc3cc(O)ccc3oc2=O)cc1OC` [Compound 39, 6-Hydroxy-3-(3,4-dimethoxyphenyl)-coumarin], the IC50 is greater than 1000 µM.
In the case of `Cc1ccc(-c2cc3ccc(O)c(O)c3oc2=O)cc1` [Compound 23, 7,8-Dihydroxy-3-(4-methylphenyl)-coumarin], the IC50 was 801 ± 41.8 µM.
Take `CCN(CC)c1ccc2cc(-c3ccc(O)cc3)c(=O)oc2c1` [Compound 41, 7-Diethylamino-3-(4-hydroxyphenyl)-coumarin]: the IC50 is greater than 1000 µM.
On to `COc1ccc2cc(-c3ccc(O)cc3)c(=O)oc2c1` [Compound 26, 7-Methoxy-3-(4-hydroxyphenyl)-coumarin], for which the IC50 was greater than 1000 µM.
Same read-out and setting: for `Cc1ccc(C)c(-c2cc3cccc(O)c3oc2=O)c1` [Compound 21, 8-Hydroxy-3-(2,5-dimethylphenyl)-coumarin] the value was greater than 1000 µM.
On the same count and under the same terms, for `Cc1ccc(C)c(-c2cc3ccc(O)c(O)c3oc2=O)c1` [Compound 33, 7,8-Dihydroxy-3-(2,5-dimethylphenyl)-coumarin] the value was 903 ± 41.9 µM.

In another data set the target is T1, α-Glucosidase (Saccharomyces cerevisiae, UniProt P53341).
T1 construct: purchased Sigma Aldrich G0660-750UN
T1 sequence (P53341 whole entry): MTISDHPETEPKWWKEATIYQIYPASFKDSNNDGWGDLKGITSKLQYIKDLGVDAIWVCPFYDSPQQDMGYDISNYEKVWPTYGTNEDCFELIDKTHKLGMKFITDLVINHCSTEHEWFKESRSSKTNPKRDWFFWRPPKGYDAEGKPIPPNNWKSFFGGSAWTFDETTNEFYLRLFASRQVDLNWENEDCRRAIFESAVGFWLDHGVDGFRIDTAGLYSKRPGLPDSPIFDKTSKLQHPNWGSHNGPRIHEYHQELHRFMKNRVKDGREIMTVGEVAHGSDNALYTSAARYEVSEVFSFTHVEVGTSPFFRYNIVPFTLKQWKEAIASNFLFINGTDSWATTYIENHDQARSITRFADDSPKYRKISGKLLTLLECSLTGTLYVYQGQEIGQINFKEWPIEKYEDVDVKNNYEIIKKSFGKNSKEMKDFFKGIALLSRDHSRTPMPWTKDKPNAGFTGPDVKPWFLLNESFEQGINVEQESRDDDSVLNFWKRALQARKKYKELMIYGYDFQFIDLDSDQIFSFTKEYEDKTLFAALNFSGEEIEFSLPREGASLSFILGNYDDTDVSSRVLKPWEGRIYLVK
The data set can be described thus: biochemical. The class given is biochemical.
Conditions: not given
Here is the method: α-Glucosidase (G0660-750UN, Sigma Aldrich) and 4-Nitrophenyl α-D-glucopyranoside (PNPG, Macklin) were dissolved in phosphate buffer (pH 6.8, 100 mM), and the test compounds were dissolved in DMSO solution. The experiment was divided into blank group, control group, sample blank group, and sample group. The reagents were loaded in 96-well plates at the dose of the table (Table 8). The solution was bathed in 37 °C water for 10 min, and then enzyme solution was added. After reaction at 37 °C for 20 min, 70 μL Na2CO3 solution ([…]) was added to stop the reaction. All experiments were run in triplicate. […] Since PNPG can produce glucose and p-Nitrophenol (PNP) under the action of α-glucosidase, PNP has the greatest absorption at 405 nm. The absorbance was determined by the microplate reader, and the inhibition rate of α-glucosidase and the IC50 value of each sample were calculated according to the formula. Inhibition rate %={[(AC−AB)−(AS−ASB)]/(AC−AB)}×100% where AC is the absorbance of control group; AB is the absorbance of blank group; AS is the absorbance of sample group; ASB is the absorbance of sample blank group.
`Cc1ccccc1-c1cc2cccc(O)c2oc1=O` [Compound 10, 8-Hydroxy-3-(2-methylphenyl)-coumarin] came in with an IC50 greater than 1000 µM.
In turn, `O=c1oc2c(O)c(O)ccc2cc1-c1ccc(F)cc1` [Compound 32, 7,8-Dihydroxy-3-(4-fluorophenyl)-coumarin] had an IC50 greater than 1000 µM.
The compound `COc1ccc(-c2cc3cc(O)ccc3oc2=O)cc1OC` [Compound 39, 6-Hydroxy-3-(3,4-dimethoxyphenyl)-coumarin] registered an IC50 of 13.1 ± 0.57 µM.
The same measure, in the same setting: for `Cc1ccc(-c2cc3ccc(O)c(O)c3oc2=O)cc1` [Compound 23, 7,8-Dihydroxy-3-(4-methylphenyl)-coumarin] the value was 25.5 ± 0.52 µM.
For the compound `CCN(CC)c1ccc2cc(-c3ccc(O)cc3)c(=O)oc2c1` [Compound 41, 7-Diethylamino-3-(4-hydroxyphenyl)-coumarin], half-maximal inhibition (IC50) was put at 13.4 ± 0.65 µM.
Take `COc1ccc2cc(-c3ccc(O)cc3)c(=O)oc2c1` [Compound 26, 7-Methoxy-3-(4-hydroxyphenyl)-coumarin]: the IC50 is greater than 1000 µM.
Still for that read-out and setting: then `Cc1ccc(C)c(-c2cc3cccc(O)c3oc2=O)c1` [Compound 21, 8-Hydroxy-3-(2,5-dimethylphenyl)-coumarin], with greater than 1000 µM.
Same read-out and setting: then `Cc1ccc(C)c(-c2cc3ccc(O)c(O)c3oc2=O)c1` [Compound 33, 7,8-Dihydroxy-3-(2,5-dimethylphenyl)-coumarin], with greater than 1000 µM.

Still in this data set, the particulars now being: in vitro.
Consider `COc1ccc(-c2cc3cc(O)ccc3oc2=O)cc1OC` [Compound 39, 6-Hydroxy-3-(3,4-dimethoxyphenyl)-coumarin], for which the “α-glucosidase inhibitory activity (in words)” value was “moderate to excellent inhibitory activity”.

Staying with this data set, now noted: mean ± SD (n = 3); read-out: α-Glucosidase inhibitory activity IC50 Value.
For `O=c1oc2c(O)c(O)ccc2cc1-c1ccc(O)cc1` [Compound 30, 7,8-Dihydroxy-3-(4-hydroxyphenyl)-coumarin], the IC50 was 19 ± 1.11 µM.

Tested on in a further data set: not given
Assay: not given
Conditions: not given
`Cc1ccccc1-c1cc2cccc(O)c2oc1=O` [Compound 10, 8-Hydroxy-3-(2-methylphenyl)-coumarin]: the melting point (usually the temperature, or range, at which the solid turns liquid) was 212.7 to 213 °C.
Same read-out and setting: for `O=c1oc2c(O)c(O)ccc2cc1-c1ccc(F)cc1` [Compound 32, 7,8-Dihydroxy-3-(4-fluorophenyl)-coumarin] the value was 259.8 to 260.7 °C; for `O=c1oc2c(O)c(O)ccc2cc1-c1ccc(O)cc1` [Compound 30, 7,8-Dihydroxy-3-(4-hydroxyphenyl)-coumarin], 287.5 to 288.9 °C; for `COc1ccc(-c2cc3cc(O)ccc3oc2=O)cc1OC` [Compound 39, 6-Hydroxy-3-(3,4-dimethoxyphenyl)-coumarin], 216.1 to 217.9 °C.
The same measure, in the same setting: for `Cc1ccc(-c2cc3ccc(O)c(O)c3oc2=O)cc1` [Compound 23, 7,8-Dihydroxy-3-(4-methylphenyl)-coumarin] the value was 226.8 to 227.5 °C; for `CCN(CC)c1ccc2cc(-c3ccc(O)cc3)c(=O)oc2c1` [Compound 41, 7-Diethylamino-3-(4-hydroxyphenyl)-coumarin], 190.2 to 191.8 °C; for `COc1ccc2cc(-c3ccc(O)cc3)c(=O)oc2c1` [Compound 26, 7-Methoxy-3-(4-hydroxyphenyl)-coumarin], 209 to 209.8 °C.
Same read-out and setting: for `Cc1ccc(C)c(-c2cc3cccc(O)c3oc2=O)c1` [Compound 21, 8-Hydroxy-3-(2,5-dimethylphenyl)-coumarin] the value was 183.2 to 187.4 °C.
In the case of `Cc1ccc(C)c(-c2cc3ccc(O)c(O)c3oc2=O)c1` [Compound 33, 7,8-Dihydroxy-3-(2,5-dimethylphenyl)-coumarin], the melting point lay in the range of 190.3 to 190.5 °C.

In a further data set the test system is AGEs formation. Put plainly: In vitro inhibitory activity of AGEs formation (bovine serum albumin/glucose). The settings on record: mean ± SD (n = 3). The class given is biochemical. Here is the method:
To prepare the AGEs reaction solution, 10 mg/mL of bovine serum albumin in 50 mM PBS (pH 7.4) was added to 0.2 M glucose, and 0.02% sodium azide was added to prevent bacterial growth. The reaction mixture (3.0 ml) was then mixed with various concentrations (0.5–1000 μg/mL) of the target compounds (1.0 ml) dissolved in DMSO. After incubating at 37 °C for 14 d, the fluorescence intensity of AGE was determined by a fluorospectrophotometer (PE, USA) with excitation and emission wavelengths at 350 nm and 420 nm, respectively. All experiments were run in triplicate. Aminoguanidine hydrochloride was used as a reference compound. The inhibition rate of AGEs formation and the IC50 value of each sample were calculated according to the formula. Inhibition rate %={[(AC−AB)−(AS−ASB)]/(AC−AB)}×100% where AC is the absorbance of control group(1.0 ml glucose +1.0 ml bovine serum albumin +1.0 ml sodium azide +1.0 ml DMSO); AB is the absorbance of blank group(1.0 ml PBS +1.0 ml bovine serum albumin +1.0 ml sodium azide +1.0 ml DMSO); AS is the absorbance of sample group (1.0 ml glucose +1.0 ml bovine serum albumin +1.0 ml sodium azide +1.0 ml target compound solution or Aminoguanidine hydrochloride solution); ASB is the absorbance of sample blank group (1.0 ml PBS +1.0 ml bovine serum albumin +1.0 ml sodium azide +1.0 ml target compound solution or Aminoguanidine hydrochloride solution).
The compound `Cc1ccccc1-c1cc2cccc(O)c2oc1=O` [Compound 10, 8-Hydroxy-3-(2-methylphenyl)-coumarin] gave an IC50 greater than 1000 µM.
The same measure, in the same setting: then `O=c1oc2c(O)c(O)ccc2cc1-c1ccc(F)cc1` [Compound 32, 7,8-Dihydroxy-3-(4-fluorophenyl)-coumarin], with 33.5 ± 1.99 µM; and `O=c1oc2c(O)c(O)ccc2cc1-c1ccc(O)cc1` [Compound 30, 7,8-Dihydroxy-3-(4-hydroxyphenyl)-coumarin], with greater than 1000 µM; and `COc1ccc(-c2cc3cc(O)ccc3oc2=O)cc1OC` [Compound 39, 6-Hydroxy-3-(3,4-dimethoxyphenyl)-coumarin], with 8.02 ± 0.2 µM.
`Cc1ccc(-c2cc3ccc(O)c(O)c3oc2=O)cc1` [Compound 23, 7,8-Dihydroxy-3-(4-methylphenyl)-coumarin]: half-maximal inhibition (IC50) required 75.9 ± 10.7 µM.
The same measure, in the same setting: for `CCN(CC)c1ccc2cc(-c3ccc(O)cc3)c(=O)oc2c1` [Compound 41, 7-Diethylamino-3-(4-hydroxyphenyl)-coumarin] the value was greater than 1000 µM; for `COc1ccc2cc(-c3ccc(O)cc3)c(=O)oc2c1` [Compound 26, 7-Methoxy-3-(4-hydroxyphenyl)-coumarin], 65.9 ± 1.34 µM; for `Cc1ccc(C)c(-c2cc3cccc(O)c3oc2=O)c1` [Compound 21, 8-Hydroxy-3-(2,5-dimethylphenyl)-coumarin], 213 ± 4.77 µM.

Tested on in the next data set: not listed separately
The data set can be described thus: DPPH free radical scavenging. The settings on record: mean ± SD (n = 3). As for the experimental part:
The effect of target compounds and vitamin C to scavenge the DPPH free radical was evaluated with the method described by Villano et al.[43] with slight modifications.
Two millilitres of different concentrations of the sample solution was added to 2.0 ml of DPPH solution (0.04 mg/mL), shaken and allowed to react at room temperature for 30 min. The absorbance value was measured at 517 nm with an ultraviolet-visible spectrophotometer. The blank reference cuvette contained absolute ethanol. All measurements were performed in triplicate. IC50 values were calculated. The percentage of DPPH radical scavenging rate of the target compound is calculated as follows: DPPH free radical scavenging effect (%)=[A0−(A1−A2)]/A0×100% where A0 is the absorbance of 2.0 ml DPPH solution +2.0 ml absolute ethanol; A1 is the absorbance of 2.0 ml DPPH solution +2.0 ml 3-arylcoumarins solution or standard; A2 is the absorbance of 2.0 ml 3-arylcoumarins solution or standard +2.0 ml absolute ethanol.
On the technique in general: The DPPH test is a chemical assay of radical scavenging.
`Cc1ccccc1-c1cc2cccc(O)c2oc1=O` [Compound 10, 8-Hydroxy-3-(2-methylphenyl)-coumarin] had an IC50 greater than 1000 µM.
`O=c1oc2c(O)c(O)ccc2cc1-c1ccc(F)cc1` [Compound 32, 7,8-Dihydroxy-3-(4-fluorophenyl)-coumarin] came in with an IC50 of 2.06 ± 0.07 µM.
Same read-out and setting: then `O=c1oc2c(O)c(O)ccc2cc1-c1ccc(O)cc1` [Compound 30, 7,8-Dihydroxy-3-(4-hydroxyphenyl)-coumarin], with 2.18 ± 0.04 µM; and `COc1ccc(-c2cc3cc(O)ccc3oc2=O)cc1OC` [Compound 39, 6-Hydroxy-3-(3,4-dimethoxyphenyl)-coumarin], with greater than 1000 µM; and `Cc1ccc(-c2cc3ccc(O)c(O)c3oc2=O)cc1` [Compound 23, 7,8-Dihydroxy-3-(4-methylphenyl)-coumarin], with 3.21 ± 0.04 µM.
`CCN(CC)c1ccc2cc(-c3ccc(O)cc3)c(=O)oc2c1` [Compound 41, 7-Diethylamino-3-(4-hydroxyphenyl)-coumarin] displayed an IC50 greater than 1000 µM.
On the same count and under the same terms, then `COc1ccc2cc(-c3ccc(O)cc3)c(=O)oc2c1` [Compound 26, 7-Methoxy-3-(4-hydroxyphenyl)-coumarin], with 68.7 ± 13.4 µM; and `Cc1ccc(C)c(-c2cc3cccc(O)c3oc2=O)c1` [Compound 21, 8-Hydroxy-3-(2,5-dimethylphenyl)-coumarin], with greater than 1000 µM.
Still for that read-out and setting: then `Cc1ccc(C)c(-c2cc3ccc(O)c(O)c3oc2=O)c1` [Compound 33, 7,8-Dihydroxy-3-(2,5-dimethylphenyl)-coumarin], with 2.98 ± 0.03 µM.
